SMILES strings stand for the structures. Where two headings read alike, the source gives them in different places.

Data set [1] relates to simian/human immunodeficiency virus (SHIV). The following applies: long-acting CAB; cited from earlier work.
Data set [2] concerns pregnant rats. The following applies: gestational day 0 to 17, cited from earlier work.
The nature of data set [3]: Maternal plasma drug concentration in mouse pregnancy model (HPLC-MSMS). It is filed as in vivo, C57BL/6J mice. The following applies: pregnant mice, mean (SD), n=2; for concentration at 24 h / Cmax at 1 h: female, C57BL/6J, mouse, plasma; for concentration at 24 h: oral, read-out: Plasma Concentration 24 h (Cmin). An excerpt:
All animal experiments were approved by the University Health Network Animal Use Committee (protocol #2575) and performed according to the policies and guidelines of the Canadian Council on Animal Care. C57BL/6J mice bred in-house (original breeders from Jackson Laboratory RRID:IMSR JAX:000664) were maintained under a 12-h light/dark cycle, with ad libitum access to food and water. Animals were acclimated to their surroundings for 1 week prior to experiment initiation. Males were isolated for 7 days prior to mating. Female mice (7–12 weeks of age) were mated with males at a ratio of 2:1. Presence of vaginal plug was denoted as gestational day 0.5 (GD0.5). Pregnancy was confirmed by weight gain of >1.5 g on GD9.5 and >3 g on GD13.5. […] The equivalent mouse mg/kg dose was calculated based on the human dose divided by an assumed average human weight of 60 kg. The dose of TDF/FTC was kept constant across the different dosages of BIC and CAB. On GD15.5, mice underwent saphenous bleed 24 h after the GD14.5 dose administration (trough). Immediately after the saphenous bleed, mice were dosed with the appropriate drug regimen and sacrificed 1 h post-treatment (peak), at which time blood was collected by cardiac puncture and amniotic fluid was collected by dissecting the uterus, puncturing the amniotic sac, and draining the amniotic fluid into a sterile dish. Amniotic fluid was pooled for the entire litter. Samples from 2 dams per arm were analyzed for drug levels.
BIC and CAB levels in plasma and amniotic fluid were determined using a validated, simultaneous assay using high-performance liquid chromatography coupled with tandem mass spectrometry (HPLC-MSMS). Briefly, 50 μL of plasma or amniotic fluid was spiked with internal standard (ritonavir-d6) followed by protein precipitation with acetonitrile and filtration. Filtrates were diluted 1:9 with ammonium acetate buffer (10 mM) and analyzed by the HPLC-MSMS system, consisting of a Shimadzu Nexera XR high-performance liquid chromatograph (Shimadzu, Columbia, MD, USA) coupled with a SCIEX API 4500 QqQ mass spectrometer (SCIEX, Concord, ON, Canada). Chromatographic separation by Mobile Phase A (10% methanol, 5% 50 mM ammonium acetate, 85% 0.25% acetic acid pH 3.6 ± 0.2) and Mobile Phase B (90% methanol, 5% 50 mM ammonium acetate, 5% 0.25% acetic acid pH 6.6 ± 0.2) was performed under linear gradient conditions (flow rate 0.7 mL/min) on a reverse-phase Zorbax XDB-C18 column (Agilent Technologies, Santa Clara, CA, USA) maintained at 40 °C. […] HPLC-MSMS data were acquired using Analyst (v 1.6.3, SCIEX, Concord, ON, Canada) and analyzed with MultiQuant software (v 3.0.3, SCIEX, Concord, ON, Canada). […] No peaks were detected in blank mouse plasma at the retention time with the specific ion settings for each compound. […] Positive controls spiked in-house and prepared by an external laboratory during a sample exchange program were included in all runs.

The conditions of data set [4]: cited from earlier work.
Setting [5] is: CAB 0.5 mg/kg (1×) oral gavage once daily GD11.5-GD15.5 with TDF 50 mg/kg + FTC 33.3 mg/kg.
Setting [6] is: CAB 1.5 mg/kg (3×) oral gavage once daily GD11.5-GD15.5 with TDF 50 mg/kg + FTC 33.3 mg/kg.
Setting [7] is: CAB 5 mg/kg (10×) oral gavage once daily GD11.5-GD15.5 with TDF 50 mg/kg + FTC 33.3 mg/kg.
[8] abbreviates: of 13 pregnant women living with HIV (4 oral CAB, 9 LA CAB).

`C[C@H]1CO[C@@H]2Cn3cc(C(=O)NCc4ccc(F)cc4F)c(=O)c(O)c3C(=O)N12` [CAB, cabotegravir]: in data set [1], the “Efficacy against intrarectal SHIV” value is “protective efficacy” and the “Efficacy against repeated high-dose intravaginal SHIV” value is “protective efficacy”. Besides, the “Fetal viability and fetal malformations” value in data set [2] (CAB orally 0, 0.5, 5, or 1000 mg/kg/day) was “no effects on fetal viability and no drug-related fetal malformations”. Further, the Fetal body weight entry in data set [2] (CAB orally 1000 mg/kg/day) is given as “minor decrease in fetal body weight”. Moreover, in data set [3] (setting [5]), the concentration at 24 h came to 260 ng/mL and the peak concentration (Cmax) at 1 h amounted to 913 ng/mL. Also, in data set [3] (setting [6]), the concentration at 24 h was 480 ng/mL and the maximum concentration (Cmax) at 1 h turned out to be 1270 ng/mL. Besides, in data set [3] (setting [7]), the concentration at 24 h was approximately 1300 ng/mL, the maximum concentration (Cmax) at 1 h turned out to be 3580 ng/mL and the “Plasma Concentration 24 h (Cmin)” value is on record as 1306 (402) ng/mL. Moreover, the Birth defects result in data set [4] (13 pregnant women living with HIV (4 oral CAB, 9 LA CAB)) is recorded as “No cases of birth defects were reported”. For the same molecule, in data set [4] (setting [8]), the “Women with live births” value is “Four” and the “Women with miscarriage within the first nine weeks of gestation” value is listed as “four”.

Broadly, the Cmax is the highest concentration seen after dosing.

Source of the values: article PMC9501129 (Pharmaceutics, 2022).
